Test results published in ChEMBL document CHEMBL2176881, “Development of N-[4-[6-(isopropylamino)pyrimidin-4-yl]-1,3-thiazol-2-yl]-N-methyl-4-[11C]methylbenzamide for positron emission tomography imaging of metabotropic glutamate 1 receptor in monkey brain” (J Med Chem, 2012).

Assays:
Mus musculus [1] = species on record: Mus musculus; test: Biodistribution in ddY mouse large intestine at 4.8 MBq/0.1 mL after 5 mins by gamma counting; format: ADME, organism-based; conditions: in vivo
Pancreas [2] = test: Biodistribution in ddY mouse pancreas at 4.8 MBq/0.1 mL after 90 mins by gamma countingeas; format: ADME, organism-based; conditions: in vivo, 1.5 h
[3] = Drug uptake in monkey cerebellum assessed as distribution volume ratio at 185 to 220 MBq, iv after 10 to 90 mins by PET analysis; format: ADME, organism-based, Macaca mulatta; conditions: rhesus monkey, in vivo
Brain [4] = test: Drug uptake in monkey brain at 185 to 220 MBq, iv after 10 to 60 mins by PET analysis in presence of unlabeled N-[4-[6-(Isopropylamino)pyrimidin-4-yl]-1,3-thiazol-2-yl]- N,4-dimethylbenzamide; format: ADME, organism-based, Macaca mulatta; conditions: rhesus monkey, in vivo
Heart [5] = test: Biodistribution in ddY mouse heart at 4.8 MBq/0.1 mL after 5 mins by gamma counting; format: ADME, organism-based; conditions: in vivo
Spleen [6] = test: Biodistribution in ddY mouse spleen at 4.8 MBq/0.1 mL after 60 mins by gamma counting; format: ADME, organism-based; conditions: in vivo, 1 h
Mus musculus [7] = species on record: Mus musculus; test: Biodistribution in ddY mouse testis at 4.8 MBq/0.1 mL after 90 mins by gamma counting; format: ADME, organism-based; conditions: in vivo, 1.5 h
Heart [8] = test: Biodistribution in ddY mouse heart at 4.8 MBq/0.1 mL after 90 mins by gamma counting; format: ADME, organism-based; conditions: in vivo, 1.5 h
Muscle tissue [9] = test: Biodistribution in ddY mouse muscle at 4.8 MBq/0.1 mL after 30 mins by gamma counting; format: ADME, organism-based; conditions: in vivo, 0.5 h
Mus musculus [10] = species on record: Mus musculus; test: Biodistribution in ddY mouse testis at 4.8 MBq/0.1 mL after 60 mins by gamma counting; format: ADME, organism-based; conditions: in vivo, 1 h
Kidney [11] = test: Biodistribution in ddY mouse kidney at 4.8 MBq/0.1 mL after 60 mins by gamma counting; format: ADME, organism-based; conditions: in vivo, 1 h
Hippocampus = test: Drug uptake in monkey hippocampus assessed as distribution volume ratio at 185 to 220 MBq, iv after 10 to 90 mins by PET analysis; format: ADME, organism-based, Macaca mulatta; conditions: rhesus monkey, in vivo
Mus musculus [12] = species on record: Mus musculus; test: Biodistribution in ddY mouse small intestine at 4.8 MBq/0.1 mL after 30 mins by gamma counting; format: ADME, organism-based; conditions: in vivo, 0.5 h
Blood [13] = test: Biodistribution in ddY mouse blood at 4.8 MBq/0.1 mL after 1 min by gamma counting; format: ADME, organism-based; conditions: in vivo
Kidney [14] = test: Biodistribution in ddY mouse kidney at 4.8 MBq/0.1 mL after 30 mins by gamma counting; format: ADME, organism-based; conditions: in vivo, 0.5 h
Blood [15] = test: Biodistribution in ddY mouse blood at 4.8 MBq/0.1 mL after 15 mins by gamma counting; format: ADME, organism-based; conditions: in vivo, 0.25 h
Muscle tissue [16] = test: Biodistribution in ddY mouse muscle at 4.8 MBq/0.1 mL after 1 min by gamma counting; format: ADME, organism-based; conditions: in vivo
[17] = Drug uptake in monkey pons at 185 to 220 MBq, iv after 10 mins by PET analysis; format: ADME, organism-based, Macaca mulatta; conditions: rhesus monkey, in vivo
Brain [18] = test: Drug uptake in monkey brain at 185 to 220 MBq, iv after 10 to 60 mins by PET analysis in presence of unlabeled 4-(6-chloropyrimidin-4-yl)-N-methylthiazol-2-amine; format: ADME, organism-based, Macaca mulatta; conditions: rhesus monkey, in vivo
Heart [19] = test: Biodistribution in ddY mouse heart at 4.8 MBq/0.1 mL after 15 mins by gamma counting; format: ADME, organism-based; conditions: in vivo, 0.25 h
[20] = Metabolic stability in monkey plasma assessed as unchanged drug level at 185 MBq/0.1 mL, iv after 30 mins; format: ADME, organism-based, Macaca mulatta; conditions: rhesus monkey, read-out: Stability
Kidney [21] = test: Biodistribution in ddY mouse kidney at 4.8 MBq/0.1 mL after 5 mins by gamma counting; format: ADME, organism-based; conditions: in vivo
[22] = Drug uptake in monkey thalamus at 185 to 220 MBq, iv after 20 mins by PET analysis; format: ADME, organism-based, Macaca mulatta; conditions: rhesus monkey, in vivo
[23] = Drug uptake in monkey putamen at 185 to 220 MBq, iv after 10 mins by PET analysis; format: ADME, organism-based, Macaca mulatta; conditions: rhesus monkey, in vivo
Brain [24] = test: Biodistribution in ddY mouse brain at 4.8 MBq/0.1 mL after 90 mins by gamma counting; format: ADME, organism-based; conditions: in vivo, 1.5 h
Blood [25] = test: Biodistribution in ddY mouse blood at 4.8 MBq/0.1 mL after 30 mins by gamma counting; format: ADME, organism-based; conditions: in vivo, 0.5 h
Liver = test: Biodistribution in ddY mouse liver at 4.8 MBq/0.1 mL after 1 min by gamma counting; format: ADME, organism-based; conditions: in vivo
Pancreas [26] = test: Biodistribution in ddY mouse pancreas at 4.8 MBq/0.1 mL after 5 mins by gamma countingeas; format: ADME, organism-based; conditions: in vivo
Lung = test: Biodistribution in ddY mouse lung at 4.8 MBq/0.1 mL after 5 mins by gamma counting; format: ADME, organism-based; conditions: in vivo
[27] = Drug uptake in monkey putamen assessed as distribution volume ratio at 185 to 220 MBq, iv after 10 to 90 mins by PET analysis; format: ADME, organism-based, Macaca mulatta; conditions: rhesus monkey, in vivo
Heart [28] = test: Biodistribution in ddY mouse heart at 4.8 MBq/0.1 mL after 60 mins by gamma counting; format: ADME, organism-based; conditions: in vivo, 1 h
Mus musculus [29] = species on record: Mus musculus; test: Biodistribution in ddY mouse testis at 4.8 MBq/0.1 mL after 5 mins by gamma counting; format: ADME, organism-based; conditions: in vivo
[30] = Drug uptake in monkey cingulate cortex at 185 to 220 MBq, iv after 20 mins by PET analysis; format: ADME, organism-based, Macaca mulatta; conditions: rhesus monkey, in vivo
Mus musculus [31] = species on record: Mus musculus; test: Biodistribution in ddY mouse small intestine at 4.8 MBq/0.1 mL after 90 mins by gamma counting; format: ADME, organism-based; conditions: in vivo, 1.5 h
Brain [32] = test: Biodistribution in ddY mouse brain at 4.8 MBq/0.1 mL after 30 mins by gamma counting; format: ADME, organism-based; conditions: in vivo, 0.5 h
Brain [33] = test: Biodistribution in ddY mouse brain at 4.8 MBq/0.1 mL after 5 mins by gamma counting; format: ADME, organism-based; conditions: in vivo
[34] = Drug uptake in monkey pons at 185 to 220 MBq, iv after 10 to 60 mins by PET analysis; format: ADME, organism-based, Macaca mulatta; conditions: rhesus monkey, in vivo
Spleen [35] = test: Biodistribution in ddY mouse spleen at 4.8 MBq/0.1 mL after 5 mins by gamma counting; format: ADME, organism-based; conditions: in vivo
Pancreas [36] = test: Biodistribution in ddY mouse pancreas at 4.8 MBq/0.1 mL after 30 mins by gamma countingeas; format: ADME, organism-based; conditions: in vivo, 0.5 h
Mus musculus [37] = species on record: Mus musculus; test: Biodistribution in ddY mouse large intestine at 4.8 MBq/0.1 mL after 60 mins by gamma counting; format: ADME, organism-based; conditions: in vivo, 1 h
Spleen [38] = test: Biodistribution in ddY mouse spleen at 4.8 MBq/0.1 mL after 30 mins by gamma counting; format: ADME, organism-based; conditions: in vivo, 0.5 h
[39] = Drug uptake in monkey thalamus at 185 to 220 MBq, iv after 10 to 60 mins by PET analysis; format: ADME, organism-based, Macaca mulatta; conditions: rhesus monkey, in vivo
[40] = Metabolic stability in Sprague-Dawley brain assessed as unchanged drug level at 37 MBq/0.1 mL, iv after 15 mins; format: ADME, organism-based; conditions: rat, read-out: Stability
Mus musculus [41] = species on record: Mus musculus; test: Biodistribution in ddY mouse small intestine at 4.8 MBq/0.1 mL after 15 mins by gamma counting; format: ADME, organism-based; conditions: in vivo, 0.25 h
Brain [42] = test: Biodistribution in ddY mouse brain at 4.8 MBq/0.1 mL after 60 mins by gamma counting; format: ADME, organism-based; conditions: in vivo, 1 h
Kidney [43] = test: Biodistribution in ddY mouse kidney at 4.8 MBq/0.1 mL after 90 mins by gamma counting; format: ADME, organism-based; conditions: in vivo, 1.5 h
Pancreas [44] = test: Biodistribution in ddY mouse pancreas at 4.8 MBq/0.1 mL after 1 min by gamma countingeas; format: ADME, organism-based; conditions: in vivo
Muscle tissue [45] = test: Biodistribution in ddY mouse muscle at 4.8 MBq/0.1 mL after 5 mins by gamma counting; format: ADME, organism-based; conditions: in vivo
Spleen [46] = test: Biodistribution in ddY mouse spleen at 4.8 MBq/0.1 mL after 90 mins by gamma counting; format: ADME, organism-based; conditions: in vivo, 1.5 h

Drug uptake (Mus musculus [1]): 1.03 % ID/g
Drug uptake (Pancreas [2]): 0.04 % ID/g
Ratio [3]: 4.3
Drug uptake (Brain [4]): Not Active
Drug uptake (Heart [5]): 1.28 % ID/g
Drug uptake (Spleen [6]): 0.02 % ID/g
Drug uptake (Mus musculus [7]): 0.14 % ID/g
Drug uptake (Heart [8]): 0.01 % ID/g
Drug uptake (Muscle tissue [9]): 0.13 % ID/g
Drug uptake (Mus musculus [10]): 0.13 % ID/g
Drug uptake (Kidney [11]): 0.22 % ID/g
Ratio (Hippocampus): 1.8
Drug uptake (Mus musculus [12]): 16.53 % ID/g
Drug uptake (Blood [13]): 3.09 % ID/g
Drug uptake (Kidney [14]): 0.56 % ID/g
Drug uptake (Blood [15]): 0.37 % ID/g
Drug uptake (Muscle tissue [16]): 2.59 % ID/g
Drug uptake [17]: Active
Drug uptake (Brain [18]): Not Active
Drug uptake (Heart [19]): 0.27 % ID/g
remaining at 0.5 h [20]: 35.8%
Drug uptake (Kidney [21]): 4.41 % ID/g
SUV [22]: 0.8
Drug uptake [23]: Active
Drug uptake (Brain [24]): 0.62 % ID/g
Drug uptake (Blood [25]): 0.14 % ID/g
Drug uptake (Liver): 11.47 % ID/g
Drug uptake (Pancreas [26]): 1.23 % ID/g
Drug uptake (Lung): 2.56 % ID/g
Ratio [27]: 1.5
Drug uptake (Heart [28]): 0.06 % ID/g
Drug uptake (Mus musculus [29]): 0.63 % ID/g
SUV [30]: 0.9
Drug uptake (Mus musculus [31]): 7.09 % ID/g
Drug uptake (Brain [32]): 1.59 % ID/g
Drug uptake (Brain [33]): 2.58 % ID/g
Drug uptake [34]: Active
Drug uptake (Spleen [35]): 0.93 % ID/g
Drug uptake (Pancreas [36]): 0.06 % ID/g
Drug uptake (Mus musculus [37]): 1.98 % ID/g
Drug uptake (Spleen [38]): 0.07 % ID/g
Drug uptake [39]: Active
remaining at 0.25 h [40]: 95.2%
Drug uptake (Mus musculus [41]): 41.52 % ID/g
Drug uptake (Brain [42]): 1.04 % ID/g
Drug uptake (Kidney [43]): 0.11 % ID/g
Drug uptake (Pancreas [44]): 4.48 % ID/g
Drug uptake (Muscle tissue [45]): 0.96 % ID/g
Drug uptake (Spleen [46]): 0.02 % ID/g
Compound: CC(C)Nc1cc(-c2csc(N(C)C(=O)c3ccc([14CH3])cc3)n2)ncn1
